Data taken from the supplement of paper PMC8671470.

Tests used:
Conditions in all cases: 72 h
BV-173 = test system: BV-173
Summary of the method: (§1)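 In 384-well plates holding acoustically pre-printed compounds at five tenfold doses from 1 to 10,000 nM, in duplicate, fifteen myeloid leukaemia cell lines were grown in RPMI 1640 for 72 h at 37 °C with 5% CO2. Luminescent ATP viability was scaled between vehicle and a positive control at 10 µM. The IC50 was then taken from log-logistic dose–response fits with four parameters.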

HEL = test system: HEL
Summary of the method: as §1

HL-60 = test system: HL-60
Summary of the method: as §1

K-562 = test system: K-562
Summary of the method: as §1

KCL-22 = test system: KCL-22
Summary of the method: as §1

KG-1 = test system: KG-1
Summary of the method: as §1

KU-812 = test system: KU-812
Summary of the method: as §1

LAMA-84 = test system: LAMA-84
Summary of the method: as §1

ML-2 = test system: ML-2
Summary of the method: as §1

MOLM-13 = test system: MOLM-13
Summary of the method: as §1

Mono-Mac-6 = test system: Mono-Mac-6
Summary of the method: as §1

NOMO-1 = test system: NOMO-1
Summary of the method: as §1

SHI-1 = test system: SHI-1
Summary of the method: as §1

THP-1 = test system: THP-1
Summary of the method: as §1

[1] = test system: myeloid leukemia patient primary cells Pat.10; experiment: cell viability (% survival relative to DMSO control); higher = less cytotoxic
Summary of the method: (§2)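 Thawed, Ficoll-purified mononuclear cells from AML or CML patients in RPMI 1640 with 10% FBS were seeded at 10,000 cells/well on 384-well plates pre-printed with 70 compounds at five tenfold concentrations, 1–10,000 nM, in duplicate, for 72 h. Viability was read by CellTiter-Glo and normalised to DMSO and 10 μM proteasome-inhibitor wells. Where given, area under the curve came from four-parameter log-logistic fits (drc, PharmacoGx R packages).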

[2] = test system: myeloid leukemia patient primary cells Pat.11; experiment: as above
Summary of the method: as §2

[3] = test system: myeloid leukemia patient primary cells Pat.12; experiment: as above
Summary of the method: as §2

[4] = test system: myeloid leukemia patient primary cells Pat.13; experiment: as above
Summary of the method: as §2

[5] = test system: myeloid leukemia patient primary cells Pat.14; experiment: as above
Summary of the method: as §2

[6] = test system: myeloid leukemia patient primary cells Pat.15; experiment: as above
Summary of the method: as §2

[7] = test system: myeloid leukemia patient primary cells Pat.1; experiment: as above
Summary of the method: as §2

[8] = test system: myeloid leukemia patient primary cells Pat.2; experiment: as above
Summary of the method: as §2

[9] = test system: myeloid leukemia patient primary cells Pat.3; experiment: as above
Summary of the method: as §2

[10] = test system: myeloid leukemia patient primary cells Pat.4; experiment: as above
Summary of the method: as §2

[11] = test system: myeloid leukemia patient primary cells Pat.5; experiment: as above
Summary of the method: as §2

[12] = test system: myeloid leukemia patient primary cells Pat.6; experiment: as above
Summary of the method: as §2

[13] = test system: myeloid leukemia patient primary cells Pat.7; experiment: as above
Summary of the method: as §2

[14] = test system: myeloid leukemia patient primary cells Pat.8; experiment: as above
Summary of the method: as §2

[15] = test system: myeloid leukemia patient primary cells Pat.9; experiment: as above
Summary of the method: as §2

[16] = test system: myeloid leukemia patient primary cells Pat.3; experiment: area under dose-response curve (viability, 1 nM-10 uM) (fraction (0-1)); higher = more sensitive
Summary of the method: as §2

Nc1nc(O)c2c(CCc3ccc(C(=O)N[C@@H](CCC(=O)O)C(=O)O)cc3)c[nH]c2n1 [Pemetrexed]
Conditions | IC50 (cell viability) [µM] | area under dose-response curve
BV-173 | 0.381 | –
HEL | 0.116 | –
HL-60 | 0.617 | –
K-562 | 1.66 | –
KCL-22 | 0.279 | –
KG-1 | > 10 | –
KU-812 | 0.239 | –
LAMA-84 | 0.0585 | –
ML-2 | 0.336 | –
MOLM-13 | 0.305 | –
Mono-Mac-6 | 0.312 | –
NOMO-1 | 1.37 | –
SHI-1 | 2.32 | –
THP-1 | 7.02 | –
[16] | – | 0.196

cell viability [%]
Conditions | 1 nM | 10 nM | 100 nM | 1000 nM | 10000 nM
[1] | 85.8 | 86 | 51.4 | 81.3 | 59.3
[2] | > 100 | > 100 | > 100 | > 100 | 93.9
[3] | > 100 | 94.2 | 95.4 | 99.1 | 97.1
[4] | 91.5 | 94.6 | 90.8 | 82.7 | 82
[5] | 86.9 | 82.5 | 90.2 | 94.7 | 52.5
[6] | 96.9 | 98.4 | > 100 | 63.2 | 94.2
[7] | > 100 | 99.3 | > 100 | 96.8 | 84.1
[8] | 81.9 | 96.3 | 97.9 | 94.3 | 87.3
[9] | > 100 | 79.5 | 76.8 | 50.9 | 45.7
[10] | > 100 | 93.8 | 93.1 | 67.3 | 82.8
[11] | > 100 | 88.1 | 43.2 | 83.4 | 14.5
[12] | 96.3 | > 100 | 97.8 | 98.7 | 78.6
[13] | 98.8 | 68.1 | 84.5 | 74.1 | 66.3
[14] | 91.8 | 88.4 | 89.8 | 78.1 | 87.6
[15] | 94.3 | 67.3 | 50.7 | > 100 | 32.6

CN(C)CCNC(=O)c1cccn2c(=O)c3cc4ccccc4cc3nc12 [Bmh-21]
Conditions | IC50 (cell viability) [µM] | area under dose-response curve
BV-173 | 0.293 | –
HEL | 0.331 | –
HL-60 | > 10 | –
K-562 | 9.11 | –
KCL-22 | 0.312 | –
KG-1 | 0.407 | –
KU-812 | 0.479 | –
LAMA-84 | 0.486 | –
ML-2 | 0.314 | –
MOLM-13 | 2.38 | –
Mono-Mac-6 | 0.347 | –
NOMO-1 | 0.923 | –
SHI-1 | > 10 | –
THP-1 | 0.91 | –
[16] | – | 0.351

cell viability [%]
Conditions | 1 nM | 10 nM | 100 nM | 1000 nM | 10000 nM
[1] | 74.6 | 87.5 | 72.1 | 38.9 | 17.3
[2] | > 100 | 97.6 | > 100 | 24.3 | 1.02
[3] | 94.1 | 91.9 | 97.3 | 55.1 | 0.342
[4] | 87.4 | 96.6 | 84.1 | 19.7 | 1.27
[5] | 87.3 | 95 | 90.6 | 42.8 | 3.08
[6] | 91.5 | 99.6 | 92.4 | 0.134 | 0.56
[7] | 85.9 | 91.9 | 91.5 | 3.71 | 0.712
[8] | 96.5 | 98.5 | 97.8 | 91.6 | 33.1
[9] | 94.4 | 90.3 | 88.3 | 12.1 | 3.46
[10] | 81.3 | 89.6 | 93.9 | 3.78 | 1.54
[11] | 35.6 | 94.1 | 79.9 | 1.33 | 0.265
[12] | 96.4 | > 100 | > 100 | 67.1 | 10.2
[13] | 59.2 | 82.6 | 92.7 | 14.1 | 4.95
[14] | 81.8 | 74.6 | 79.8 | 88.3 | < 0
[15] | 63 | 90.4 | 69.9 | 3.68 | 3.45

O=C(/C=C/c1cccnc1)NCCCCC1CCN(C(=O)c2ccccc2)CC1 [Daporinad]
Conditions | IC50 (cell viability) [µM] | area under dose-response curve
BV-173 | < 0.001 | –
HEL | 0.00233 | –
HL-60 | 0.00147 | –
K-562 | 0.00378 | –
KCL-22 | 0.00331 | –
KG-1 | 0.00363 | –
KU-812 | 0.00334 | –
LAMA-84 | 0.00218 | –
ML-2 | 0.00139 | –
MOLM-13 | 0.00369 | –
Mono-Mac-6 | 0.0206 | –
NOMO-1 | < 0.001 | –
SHI-1 | > 10 | –
THP-1 | > 10 | –
[16] | – | 0.995

cell viability [%]
Conditions | 1 nM | 10 nM | 100 nM | 1000 nM | 10000 nM
[1] | 28.5 | 2.87 | < 0 | 2.87 | < 0
[2] | 94.7 | 10.9 | 1.05 | 2.36 | 0.862
[3] | 91.5 | 32.2 | 8.2 | 5.73 | 3.19
[4] | 95 | 34.4 | 9.16 | 3.22 | 7.15
[5] | 17.1 | 1.32 | 2.09 | < 0 | 0.671
[6] | 80.9 | 24.2 | 0.879 | 1.32 | 0.659
[7] | 98.2 | 64.2 | 20.9 | 16.9 | 11
[8] | 91.1 | 30.5 | 11.7 | 9.71 | 6.63
[9] | 3.7 | 2.72 | 2.93 | 3.29 | 2.8
[10] | 38.2 | 3.86 | 2.67 | 2.08 | 0.709
[11] | 0.265 | < 0 | 9.08 | < 0 | < 0
[12] | 60.3 | 51.7 | 24.6 | 25.6 | 19.4
[13] | 6.69 | < 0 | < 0 | < 0 | < 0
[14] | 98.3 | 11 | 4.49 | 10.4 | 0.503
[15] | 0.773 | < 0 | 0.492 | 0.773 | 0.773
